The source of these data is patent US20150284331A1 (priority 2012, published 2015).

The target in experiment [1] is T1, butyrylcholinesterase (Rattus norvegicus, UniProt Q9JKC1).
T1 construct: Butyrylcholinesterase: rat serum; from tissue; host or cells: rat serum
Briefly: inhibition of butyrylcholinesterase (rat serum). The format is biochemical. Conditions: rat serum enzyme; final concentration 4×10−5 mol/L. Here is the method: (§1) Sample processing: All samples were formulated as 10-2 mol/L solution by using 100% DMSO. 10-2 mol/L solution was used in microdetermination. 1 μL was taken to use in single tube experiment.
(§2) Solvent control: 0.4% DMSO was used in microdetermination. The inhibition ratio of the sample was obtained wherein the effect of solvent was deducted.
Butyrylcholinesterase: rat serum

Experiment [2] deals with T2, acetylcholinesterase (Rattus norvegicus, UniProt P37136).
T2 construct: Acetylcholinesterase: rat cortex; from tissue; host or cells: rat cortex
T2 sequence (P37136 32-614): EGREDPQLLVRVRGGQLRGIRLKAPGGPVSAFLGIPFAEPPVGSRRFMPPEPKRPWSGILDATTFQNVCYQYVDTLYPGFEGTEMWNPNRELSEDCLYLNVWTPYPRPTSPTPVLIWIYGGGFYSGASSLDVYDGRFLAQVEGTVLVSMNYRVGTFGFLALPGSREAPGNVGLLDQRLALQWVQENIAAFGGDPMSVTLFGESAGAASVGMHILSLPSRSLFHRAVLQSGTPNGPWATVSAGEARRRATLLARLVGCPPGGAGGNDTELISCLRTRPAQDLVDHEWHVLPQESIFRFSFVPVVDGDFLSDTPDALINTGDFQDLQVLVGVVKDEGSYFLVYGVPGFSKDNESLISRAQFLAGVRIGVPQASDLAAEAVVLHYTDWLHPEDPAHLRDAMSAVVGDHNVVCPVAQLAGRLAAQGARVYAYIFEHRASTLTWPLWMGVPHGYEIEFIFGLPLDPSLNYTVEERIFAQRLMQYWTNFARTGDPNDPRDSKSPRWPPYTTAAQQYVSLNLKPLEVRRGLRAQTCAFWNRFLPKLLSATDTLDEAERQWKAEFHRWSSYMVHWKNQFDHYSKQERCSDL
Put plainly: biochemical. The format is biochemical. Conditions: rat cortex enzyme; for acetylcholinesterase inhibitory activity inhibition ratio (%): final concentration 4×10−5 mol/L; for IC50: read-out: acetylcholinesterase inhibitory activity IC50 (nmol). Here is the method:
as §1, §2
Acetylcholinesterase: rat cortex

The structures appear in SMILES notation.

T1 sequence (Q9JKC1 24-597): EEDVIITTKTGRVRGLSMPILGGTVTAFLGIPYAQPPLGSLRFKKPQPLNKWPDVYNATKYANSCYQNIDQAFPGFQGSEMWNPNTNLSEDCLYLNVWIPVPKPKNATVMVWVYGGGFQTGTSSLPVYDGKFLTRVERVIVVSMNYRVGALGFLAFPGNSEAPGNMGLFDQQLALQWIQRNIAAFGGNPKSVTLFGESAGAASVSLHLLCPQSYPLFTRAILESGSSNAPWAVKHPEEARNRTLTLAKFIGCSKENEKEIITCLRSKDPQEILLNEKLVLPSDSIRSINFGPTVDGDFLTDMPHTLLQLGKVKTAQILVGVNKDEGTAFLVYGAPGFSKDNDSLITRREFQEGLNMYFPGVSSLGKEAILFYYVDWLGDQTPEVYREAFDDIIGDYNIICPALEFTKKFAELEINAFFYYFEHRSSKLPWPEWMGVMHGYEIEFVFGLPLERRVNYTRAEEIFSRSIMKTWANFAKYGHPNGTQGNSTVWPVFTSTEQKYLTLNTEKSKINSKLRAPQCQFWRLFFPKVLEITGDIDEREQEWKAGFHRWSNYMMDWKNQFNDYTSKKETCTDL

Regarding `COc1cc2c(cc1OC)C(=O)C(CC1(F)CC3CCC(C1)N3Cc1cc(C)cc(C)c1)C2` (centres unmarked) [DC44, 2-((8-(3,5-dimethylbenzyl)-3-fluoro-8-azabicyclo[3.2.1]octan-3-yl)methyl)-5,6-dimethoxy-2,3-dihydro-1H-inden-1-one], the “butyrylcholinesterase inhibitory activity inhibition ratio (%)” value in experiment [1] was determined as 34.15%. Further, the “acetylcholinesterase inhibitory activity inhibition ratio (%)” value in experiment [2] was 95.27%.
`COc1cc2c(cc1OC)C(=O)C(CC1(F)CCN(Cc3cc4c(cc3Br)OCO4)CC1)C2` (centres unmarked) [DC9, 2-((1-((6-bromobenzo[d][1,3]dioxol-5-yl)methyl)-4-fluoropiperidin-4-yl)methyl)-5,6-dimethoxy-2,3-dihydro-1H-inden-1-one]: the “butyrylcholinesterase inhibitory activity inhibition ratio (%)” value in experiment [1] was determined as 33.79%. Moreover, the “acetylcholinesterase inhibitory activity inhibition ratio (%)” value in experiment [2] is given as 97.34%.
For `COc1cc2c(cc1OC)C(=O)C(CC1(F)CC3CCC(C1)N3Cc1ccc(F)cc1)C2` (centres unmarked) [DC45, 2-((3-fluoro-8-(4-fluorobenzyl)-8-azabicyclo[3.2.1]octan-3-yl)methyl)-5,6-dimethoxy-2,3-dihydro-1H-inden-1-one] the same measures were 82.56% and 97.19%.
For `O=C1c2cc(OCC(F)F)c(OCC(F)F)cc2CC1CC1(F)CCN(Cc2ccccc2F)CC1` (centres unmarked) [DC105, 5,6-bis(2,2-difluoroethoxy)-2-((4-fluoro-1-(2-fluorobenzyl)piperidin-4-yl)methyl)-2,3-dihydro-1H-inden-1-one], the “butyrylcholinesterase inhibitory activity inhibition ratio (%)” value in experiment [1] turned out to be 61.5%. In addition, in experiment [2], the “acetylcholinesterase inhibitory activity inhibition ratio (%)” value was 98.14% and the 50% inhibitory concentration (IC50) came out at 990 pM.
Turning to `COc1cc2c(cc1OC)C(=O)C(CC1(F)CCN(Cc3cccc(C)c3)CC1)C2` (centres unmarked) [DC29, 2-((4-fluoro-1-(3-methylbenzyl)piperidin-4-yl)methyl)-5,6-dimethoxy-2,3-dihydro-1H-inden-1-one], the “butyrylcholinesterase inhibitory activity inhibition ratio (%)” value in experiment [1] came to 64.92%. Besides, the “acetylcholinesterase inhibitory activity inhibition ratio (%)” value in experiment [2] is 97.78%.
For `COc1cc2c(cc1OC)C(=O)C(CC1(F)CCN(Cc3ccc(F)c(F)c3F)CC1)C2` (centres unmarked) [DC12, 2-((4-fluoro-1-(2,3,4-trifluorobenzyl)piperidin-4-yl)methyl)-5,6-dimethoxy-2,3-dihydro-1H-inden-1-one] the same measures were 38.15% and 98.08%.
For `COc1cc2c(cc1OC)C(=O)C(CC1(F)CCN(Cc3ccccc3C#N)CC1)C2.Cl` (centres unmarked) [DC37, 2-((4-((5,6-dimethoxy-1-oxo-2,3-dihydro-1H-inden-2-yl)methyl)-4-fluoropiperidin-1-yl)methyl)benzonitrile hydrochloride] the same measures were 20.80% and 81.98%.
As to `COc1cc2c(cc1OC)C(=O)C(CC1(F)CC3CCC(C1)N3Cc1ccccc1)C2` (centres unmarked) [DC59, 2-((8-benzyl-3-fluoro-8-azabicyclo[3.2.1]octan-3-yl)methyl)-5,6-dimethoxy-2,3-dihydro-1H-inden-1-one], the “butyrylcholinesterase inhibitory activity inhibition ratio (%)” value in experiment [1] is listed as 69.03%. Moreover, the “acetylcholinesterase inhibitory activity inhibition ratio (%)” value in experiment [2] amounted to 86.12%.
For `O=C1c2cc(OCC(F)(F)F)c(OCC(F)(F)F)cc2CC1CC1(F)CCN(Cc2ccccc2F)CC1` (centres unmarked) [DC103, 2-((4-fluoro-1-(2-fluorobenzyl)piperidin-4-yl)methyl)-5,6-bis(2,2,2-trifluoroethoxy)-2,3-dihydro-1H-inden-1-one], the “butyrylcholinesterase inhibitory activity inhibition ratio (%)” value in experiment [1] stood at 70.0%. Also, in experiment [2], the “acetylcholinesterase inhibitory activity inhibition ratio (%)” value was 92.04% and the IC50 was found to be 860 pM.
Take `COC(=O)C1CC(F)(CC2Cc3cc(OC)c(OC)cc3C2=O)CCN1Cc1ccccc1F` (centres unmarked) [DC107, methyl 4-((5,6-dimethoxy-1-oxo-2,3-dihydro-1H-inden-2-yl)methyl)-4-fluoro-1-(2-fluorobenzyl)piperidine-2-carboxylate]: the “butyrylcholinesterase inhibitory activity inhibition ratio (%)” value in experiment [1] came to 75.6%. Further, in experiment [2], the “acetylcholinesterase inhibitory activity inhibition ratio (%)” value was determined as 76.03% and the IC50 is 23000 pM.

For orientation: IC50 means the point on the concentration scale where inhibition reaches its midpoint.
